Legend:
[1] = test system: Rat Aorta Sample (constriction by TEA and Ba); assay: Vasorelaxation activity in rat aorta sample: effect on constriction caused by tetraethylammonium chloride (TEA) and barium chloride (Ba); assay type: cell-based, Male Wister rats; conditions: TEA (30 to 45 mM) and Ba (0.3 mM), rat aorta ring, read-out: constriction inhibitory ratio (%)
Experimental: (§1) Vasorelaxation Activity in Rat Aorta Sample
Effect on Relaxation Caused by Tetraethylammonium Chloride (TEA) and Barium Chloride (Ba)
Method: Male Wister rats (10 to 13 weeks old) were used for the experiment. After dehematization, the aorta was excised and a ring sample (5 mm) was prepared. The sample was suspended in a bath filled with oxygenated (95% O2 -5% CO2) Krebs solution (36° C.). The ring sample was fixed at one end and the other end was connected to a transducer (Nippon Koden, Japan) for recording tension and the tension was measured. After a stabilization period of 1 hour, TEA (30 to 45 mM) and Ba (0.3 mM) were added to the bath to cause vasoconstriction. After the constriction has reached a steady state (after about 15 minutes), a test compound was added to the bath and its relaxation activity was measured.
Result: The results are shown in Table 3 in terms of the inhibitory ratio of the test compound.

[2] = test system: Rat Aorta Sample (constriction by KCl); assay: Vasorelaxation activity in rat aorta sample: effect on constriction caused by potassium chloride (KCl); assay type: cell-based, Male Wister rats; conditions: KCl (80 mM), rat aorta ring, read-out: constriction inhibitory ratio (%)
Experimental: as §1
Effect on Relaxation Caused by Potassium Chloride (KCl)
Method: According to the same manner as that described in Experiment 1, this experiment was carried out except that KCl (80 mM) was used instead of TEA and Ba.
Result: The results are shown in Table 4 in terms of the inhibitory ratio of the test compound.

[3] = test system: spontaneously hypertensive rat; assay: Hypotensive activity in spontaneously hypertensive rats; assay type: in vivo; conditions: po, orally, conscious spontaneously hypertensive rat, male, 20 to 23 weeks old, read-out: maximum effect (%) (mean ratio of maximum decrease in the blood pressure)
Experimental: Hypotensive Activity in Rats
Method: A spontaneously hypertensive rat (male, 20 to 23 weeks old) was operated in advance for retaining a cannula for blood pressure measurement in the left femoral artery. The experiment was carried out for the rat when waking on the next day after the operation. The cannula was connected with a transducer (Specrtramed) upon the experiment and the blood pressure was measured (Nippon Koden, Japan). A test compound was suspended in gum arabic and the suspension was administered orally.

Q: CC1(C)N=C(c2cccc[n+]2[O-])c2cc(Cl)c(Cl)cc2O1 [Compound 79, 2-(6,7-dichloro-2,2-dimethyl-2H-1,3-benzoxazin-4-yl)pyridine N-oxide] was tested. Which inhibition at 1 µM [1] did it give?
A: 24%

Q: And the inhibition at 3 µM [1]?
A: 57%

Q: What about the inhibition at 10 µM [1] of the same compound?
A: 65%

Q: And the inhibition at 1 µM [2]?
A: -5%

Q: What about the inhibition at 3 µM [2] of the same compound?
A: -1%

Q: What about the inhibition at 10 µM [2] of the same compound?
A: 3%

Q: And the inhibition in vivo at 1 mg/kg [3]?
A: 36%

Q: With Cc1cc2c(cc1Br)C(c1cccc[n+]1[O-])=NC(C)(C)O2 [Compound 47, 2-(6-bromo-2,2,7-trimethyl-2H-1,3-benzoxazin-4-yl)pyridine N-oxide] as the compound, how does the inhibition at 1 µM [1] read?
A: 72%

Q: And the inhibition at 3 µM [1]?
A: 100%

Q: And the inhibition at 1 µM [2]?
A: -1%

Q: What about the inhibition at 3 µM [2] of the same compound?
A: 2%

Q: With CC1(C)N=C(c2cccc[n+]2[O-])c2cc(Cl)ccc2O1 [Compound 24, 2-(6-chloro-2,2-dimethyl-2H-1,3-benzoxazin-4-yl)pyridine N-oxide] as the compound, how does the inhibition at 3 µM [1] read?
A: 76%

Q: What about the inhibition at 10 µM [1] of the same compound?
A: 94%

Q: And the inhibition at 10 µM [2]?
A: -11%

Q: And the inhibition in vivo at 1 mg/kg [3]?
A: 38%

Q: CCOc1ccc[n+]([O-])c1C1=NC(C)(C)Oc2cc(Cl)c(Br)cc21 [Compound 117, 2-(6-bromo-7-chloro-2,2-dimethyl-2H-1,3-benzoxazin-4-yl)-3-ethoxypyridine N-oxide] was tested. Which inhibition in vivo at 1 mg/kg [3] did it give?
A: 54%

Q: Cc1cc2c(cc1[N+](=O)[O-])C(c1cccc[n+]1[O-])=NC(C)(C)O2 [Compound 49, 2-(2,2,7-trimethyl-6-nitro-2H-1,3-benzoxazin-4-yl)pyridine N-oxide] was tested. Which inhibition at 1 µM [1] did it give?
A: 28%

Q: What about the inhibition at 3 µM [1] of the same compound?
A: 77%

Q: And the inhibition at 10 µM [1]?
A: 86%

Q: What about the inhibition at 1 µM [2] of the same compound?
A: -7%

Q: What about the inhibition at 3 µM [2] of the same compound?
A: -6%

Q: And the inhibition at 10 µM [2]?
A: -3%

Q: Which inhibition in vivo at 1 mg/kg [3] does the source give for CCOc1ccc[n+]([O-])c1C1=NC(C)(C)Oc2ccc(Br)cc21 [Compound 119, 2-(6-bromo-2,2-dimethyl-2H-1,3-benzoxazin-4-yl)-3-ethoxypyridine N-oxide] here?
A: 61%

Q: Which inhibition at 3 µM [1] does the source give for CC1(C)N=C(c2cccc[n+]2[O-])c2cc(C#N)ccc2O1 [Compound 20, 2-(6-cyano-2,2-dimethyl-2H-1,3-benzoxazin-4-yl)pyridine N-oxide] here?
A: 35%

Q: And the inhibition at 10 µM [1]?
A: 81%

Q: And the inhibition at 3 µM [2]?
A: -4%

Q: What about the inhibition at 10 µM [2] of the same compound?
A: -2%

Q: What about the inhibition in vivo at 1 mg/kg [3] of the same compound?
A: 39%

Q: For CC1(C)N=C(c2cccc[n+]2[O-])c2cc(Br)c(F)cc2O1 [Compound 95, 2-(6-bromo-7-fluoro-2,2-dimethyl-2H-1,3-benzoxazin-4-yl)pyridine N-oxide], which inhibition in vivo at 1 mg/kg [3] is on record?
A: 55%

Q: How did the inhibition at 3 µM [1] turn out when CC1(C)N=C(c2cccc[n+]2[O-])c2cc(OC(F)(F)F)ccc2O1 [Compound 69, 2-(6-trifluoromethoxy-2,2-dimethyl-2H-1,3-benzoxazin-4-yl)pyridine N-oxide] was run?
A: 45%

Q: And the inhibition at 10 µM [1]?
A: 81%

Q: And the inhibition at 3 µM [2]?
A: -1%

Q: What about the inhibition at 10 µM [2] of the same compound?
A: 2%

Q: What about the inhibition in vivo at 1 mg/kg [3] of the same compound?
A: 44%

Q: Which inhibition in vivo at 1 mg/kg [3] does the source give for CC(=O)c1ccc2c(c1)C(c1cccc[n+]1[O-])=NC(C)(C)O2 [Compound 56, 2-(6-acetyl-2,2-dimethyl-2H-1,3-benzoxazin-4-yl)pyridine N-oxide] here?
A: 22%

Q: For COc1ccc[n+]([O-])c1C1=NC(C)(C)Oc2cc(Cl)c(Br)cc21 [Compound 126, 2-(6-bromo-7-chloro-2,2-dimethyl-2H-1,3-benzoxazin-4-yl)-3-methoxypyridine N-oxide], which inhibition in vivo at 1 mg/kg [3] is on record?
A: 49%

Q: Which inhibition in vivo at 1 mg/kg [3] does the source give for COc1ccc[n+]([O-])c1C1=NC(C)(C)Oc2ccc(C(F)(F)F)cc21 [Compound 118, 2-(6-trifluoromethyl-2,2-dimethyl-2H-1,3-benzoxazin-4-yl)-3-methoxypyridineN-oxide] here?
A: 43%

Q: How did the inhibition at 1 µM [1] turn out when CC1(C)N=C(c2cccc[n+]2[O-])c2cc(Br)c(Cl)cc2O1 [Compound 89, 2-(6-bromo-7-chloro-2,2-dimethyl-2H-1,3-benzoxazin-4-yl)pyridine 1-oxide] was run?
A: 59%

Q: What about the inhibition at 3 µM [1] of the same compound?
A: 67%

Q: What about the inhibition at 10 µM [1] of the same compound?
A: 71%

Q: And the inhibition at 1 µM [2]?
A: -11%

Q: And the inhibition at 3 µM [2]?
A: -8%

Q: What about the inhibition at 10 µM [2] of the same compound?
A: -3%

Q: And the inhibition in vivo at 1 mg/kg [3]?
A: 33%

Q: How did the inhibition at 1 µM [1] turn out when CC1(C)N=C(c2cccc[n+]2[O-])c2cc([N+](=O)[O-])ccc2O1 [Compound 29, 2-(2,2-dimethyl-6-nitro-2H-1,3-benzoxazin-4-yl)pyridine N-oxide] was run?
A: 74%

Q: And the inhibition at 1 µM [2]?
A: -8%

Q: And the inhibition in vivo at 1 mg/kg [3]?
A: 61%

Q: What does the source list for CC1(C)N=C(c2cccc[n+]2[O-])c2cc(C(F)(F)F)ccc2O1 [Compound 75, 2-(6-trifluoromethyl-2,2-dimethyl-2H-1,3-benzoxazin-4-yl)pyridine N-oxide]?
A: inhibition at 1 µM [1]: 38%; inhibition at 3 µM [1]: 91%; inhibition at 10 µM [1]: 100%; inhibition at 1 µM [2]: -2%; inhibition at 3 µM [2]: 1%; inhibition at 10 µM [2]: 2%; inhibition in vivo at 1 mg/kg [3]: 54%

Q: For COc1ccc[n+]([O-])c1C1=NC(C)(C)Oc2ccc(Br)cc21 [Compound 129, 2-(6-bromo-2,2-dimethyl-2H-1,3-benzoxazin-4-yl)-3-methoxypyridine N-oxide], which inhibition in vivo at 1 mg/kg [3] is on record?
A: 55%

Q: CC1(C)N=C(c2cccnc2)c2cc(Br)ccc2O1 [Compound 98] was tested. Which inhibition at 1 µM [2] did it give?
A: -4%

Q: And the inhibition at 3 µM [2]?
A: -6%

Q: What does the source list for CC1(C)N=C(c2cccc[n+]2[O-])c2cc(Br)ccc2O1 [Compound 23, 2-(6-bromo-2,2-dimethyl-2H-1,3-benzoxazin-4-yl)pyridine N-oxide]?
A: inhibition at 1 µM [1]: 19%; inhibition at 3 µM [1]: 82%; inhibition at 10 µM [1]: 100%; inhibition at 1 µM [2]: -1%; inhibition at 3 µM [2]: 1%; inhibition at 10 µM [2]: 4%; inhibition in vivo at 1 mg/kg [3]: 32%

Q: What does the source list for C#Cc1ccc2c(c1)C(c1cccc[n+]1[O-])=NC(C)(C)O2 [Compound 53, 2-(6-ethynyl-2,2-dimethyl-2H-1,3-benzoxazin-4-yl)pyridine N-oxide]?
A: inhibition at 10 µM [1]: 89%; inhibition at 10 µM [2]: -4%

Q: Which inhibition at 3 µM [1] does the source give for CC1(C)N=C(c2cccc[n+]2[O-])c2cc(C(F)(F)C(F)(F)F)ccc2O1 [Compound 77, 2-(6-pentafluoroethyl-2,2-dimethyl-2H-1,3-benzoxazin-4-yl)pyridine N-oxide] here?
A: 45%

Q: What about the inhibition at 10 µM [1] of the same compound?
A: 98%

Q: What about the inhibition at 3 µM [2] of the same compound?
A: 3%

Q: And the inhibition at 10 µM [2]?
A: 10%

Q: What about the inhibition in vivo at 1 mg/kg [3] of the same compound?
A: 25%

Q: Which inhibition in vivo at 1 mg/kg [3] does the source give for COc1ccc[n+]([O-])c1C1=NC(C)(C)Oc2ccc(C#N)cc21 [Compound 125, 2-(6-cyano-2,2-dimethyl-2H-1,3-benzoxazin-4-yl)-3-methoxypyridine N-oxide] here?
A: 23%

Q: How did the inhibition at 1 µM [1] turn out when CC1(C)N=C(c2cccc[n+]2[O-])c2cc(Br)c(Br)cc2O1 [Compound 93, 2-(6,7-dibromo-2,2-dimethyl-2H-1,3-benzoxazin-4-yl)pyridine N-oxide] was run?
A: 52%

Q: And the inhibition at 3 µM [1]?
A: 71%

Q: And the inhibition in vivo at 1 mg/kg [3]?
A: 22%

Q: How did the inhibition in vivo at 1 mg/kg [3] turn out when CC1(C)N=C(c2c(O)ccc[n+]2[O-])c2cc(Br)ccc2O1 [Compound 143, 2-(6-bromo-2,2-dimethyl-2H-1,3-benzoxadin-4-yl)-3-hydroxypyridine N-oxide] was run?
A: 54%

Q: CC1(C)N=C(c2cccc[n+]2[O-])c2cc(C#N)c(Cl)cc2O1 [Compound 91, 2-(7-chloro-6-cyano-2,2-dimethyl-2H-1,3-benzoxazin-4-yl)pyridine N-oxide] was tested. Which inhibition in vivo at 1 mg/kg [3] did it give?
A: 39%

Q: Cc1cc2c(cc1C#N)C(c1cccc[n+]1[O-])=NC(C)(C)O2 [Compound 65, 2-(6-cyano-2,2,7-trimethyl-2H-1,3-benzoxazin-4-yl)pyridine N-oxide] was tested. Which inhibition at 3 µM [1] did it give?
A: 48%

Q: What about the inhibition at 10 µM [1] of the same compound?
A: 74%

Q: What about the inhibition at 3 µM [2] of the same compound?
A: -2%

Q: And the inhibition at 10 µM [2]?
A: 0%

Q: Which inhibition in vivo at 1 mg/kg [3] does the source give for CCOc1ccc[n+]([O-])c1C1=NC(C)(C)Oc2ccc(C#N)cc21 [Compound 38, 2-(6-cyano-2,2-dimethyl-2H-1,3-benzoxazin-4-yl)-3-ethoxypyridine N-oxide] here?
A: 58%

Q: How did the inhibition in vivo at 1 mg/kg [3] turn out when CCOc1ccc[n+]([O-])c1C1=NC(C)(C)Oc2ccc(C(F)(F)F)cc21 [Compound 124, 3-ethoxy-2-(6-trifluoromethyl-2,2-dimethyl-2H-1,3-benzoxazin-4-yl)pyridine N-oxide] was run?
A: 48%

Reference: US5270308A, “1,3-benzoxazine derivatives, their production and use” (Takeda Chemical Industries, Ltd., priority 1990, dated 1993)
